Assay results from patent publication US9045491B2, “Thienyl [3,2-D] pyrimidin-4-one compounds, preparation method, pharmaceutical compositions and use thereof” (SHANGHAI INSTITUTE OF MATERIA MEDICA, CHINESE ACADEMY OF …, priority 2011, dated 2015).
Counter-ions that a name gives are not always drawn.

Experiments:
Format in all cases: biochemical
human DPP IV = biological target: T1, human DPP IV (Homo sapiens, UniProt P27487); test: DPP IV activity screening (Ala-Pro-AMC fluorescence)
T1 construct: extracellular fragment of protease DPP IV (aa29-766); made in house; host or cells: baculovirus expression system Bac-to-Bac
T1 sequence (P27487 29-766): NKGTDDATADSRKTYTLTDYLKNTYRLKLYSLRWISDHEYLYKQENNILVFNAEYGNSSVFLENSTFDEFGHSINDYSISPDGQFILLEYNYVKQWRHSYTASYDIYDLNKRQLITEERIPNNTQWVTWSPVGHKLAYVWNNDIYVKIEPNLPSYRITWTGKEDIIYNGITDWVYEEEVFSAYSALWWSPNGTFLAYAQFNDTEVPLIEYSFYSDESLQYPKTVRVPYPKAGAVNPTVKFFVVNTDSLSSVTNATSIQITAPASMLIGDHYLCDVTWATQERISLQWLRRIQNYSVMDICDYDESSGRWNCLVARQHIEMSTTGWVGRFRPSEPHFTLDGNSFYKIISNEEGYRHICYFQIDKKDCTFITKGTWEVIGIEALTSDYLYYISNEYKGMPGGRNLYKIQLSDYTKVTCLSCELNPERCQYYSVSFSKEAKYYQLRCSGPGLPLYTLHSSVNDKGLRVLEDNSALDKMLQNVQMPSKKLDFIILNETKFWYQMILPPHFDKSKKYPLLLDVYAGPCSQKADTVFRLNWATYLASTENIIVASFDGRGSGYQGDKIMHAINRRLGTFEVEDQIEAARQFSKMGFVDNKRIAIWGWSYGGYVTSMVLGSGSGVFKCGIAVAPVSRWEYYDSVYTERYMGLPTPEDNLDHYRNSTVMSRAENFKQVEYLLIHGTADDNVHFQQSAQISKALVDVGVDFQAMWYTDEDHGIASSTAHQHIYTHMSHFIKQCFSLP
In short: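 DPP IV activity is taken as the linear rate of fluorescence change at 460 nm. Samples are dissolved in DMSO and screened at a single concentration (e.g. 20 μg/mL). Dose-response data are fit to a variable-slope sigmoidal model with bottom and top fixed at 0 and 100.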

[1] = biological target: dipeptidyl peptidase 7 (DPP 7) (Homo sapiens, UniProt Q9UHL4); test: DPP 7 activity screening; conditions: N.I. = No Inhibition
In short: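 Sample dissolved in DMSO, final DMSO kept at a level not affecting activity; tested at a single concentration from preliminary screening (e.g. 20 μg/mL). Dose-response data fitted to sigmoidal variable-slope model with bottom and top fixed at 0 and 100.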

human DPP 8 = biological target: T2, human DPP 8 (Homo sapiens, UniProt Q6V1X1); test: DPP 8 activity screening (Ala-Pro-AMC fluorescence); conditions: N.I. = No Inhibition
T2 construct: made in house; host or cells: insect cells, baculovirus Bac-to-Bac
T2 sequence (Q6V1X1 whole entry): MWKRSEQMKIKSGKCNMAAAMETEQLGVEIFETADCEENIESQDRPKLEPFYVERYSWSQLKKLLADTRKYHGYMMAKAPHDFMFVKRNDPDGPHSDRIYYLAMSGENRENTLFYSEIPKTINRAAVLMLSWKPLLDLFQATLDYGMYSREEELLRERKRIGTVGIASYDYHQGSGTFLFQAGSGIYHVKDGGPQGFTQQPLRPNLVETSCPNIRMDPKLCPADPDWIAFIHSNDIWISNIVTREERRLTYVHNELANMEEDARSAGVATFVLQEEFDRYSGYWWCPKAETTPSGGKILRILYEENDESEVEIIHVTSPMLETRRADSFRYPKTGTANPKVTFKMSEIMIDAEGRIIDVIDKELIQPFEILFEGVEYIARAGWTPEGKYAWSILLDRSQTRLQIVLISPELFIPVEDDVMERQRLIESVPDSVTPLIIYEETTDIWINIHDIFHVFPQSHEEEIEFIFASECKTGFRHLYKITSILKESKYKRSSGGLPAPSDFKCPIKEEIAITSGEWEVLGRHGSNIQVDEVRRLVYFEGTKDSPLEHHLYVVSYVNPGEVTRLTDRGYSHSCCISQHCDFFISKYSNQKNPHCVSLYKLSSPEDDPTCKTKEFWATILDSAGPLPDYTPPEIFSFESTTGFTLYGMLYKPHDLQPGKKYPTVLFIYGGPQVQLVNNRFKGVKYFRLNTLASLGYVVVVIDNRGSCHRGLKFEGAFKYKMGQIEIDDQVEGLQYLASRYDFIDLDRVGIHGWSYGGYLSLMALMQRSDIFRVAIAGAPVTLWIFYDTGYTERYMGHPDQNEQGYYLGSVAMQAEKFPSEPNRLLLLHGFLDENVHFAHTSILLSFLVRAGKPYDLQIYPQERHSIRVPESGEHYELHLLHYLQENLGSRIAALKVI
In short: (§1)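 Insect-cell baculovirus-expressed human enzymes hydrolyse Ala-Pro-AMC; AMC release monitored kinetically as fluorescence rate (ex 355/em 460 nm). Primary screen at a single concentration (e.g. 20 μg/mL); dose–response fitted to variable-slope sigmoid with bottom/top fixed at 0 and 100.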

Human DPP 9 = biological target: T3, Human DPP 9 (Homo sapiens, UniProt Q86TI2); test: DPP 9 activity screening (Ala-Pro-AMC fluorescence); conditions: N.I. = No Inhibition
T3 construct: made in house; host or cells: insect cells, baculovirus Bac-to-Bac
T3 sequence (Q86TI2 whole entry): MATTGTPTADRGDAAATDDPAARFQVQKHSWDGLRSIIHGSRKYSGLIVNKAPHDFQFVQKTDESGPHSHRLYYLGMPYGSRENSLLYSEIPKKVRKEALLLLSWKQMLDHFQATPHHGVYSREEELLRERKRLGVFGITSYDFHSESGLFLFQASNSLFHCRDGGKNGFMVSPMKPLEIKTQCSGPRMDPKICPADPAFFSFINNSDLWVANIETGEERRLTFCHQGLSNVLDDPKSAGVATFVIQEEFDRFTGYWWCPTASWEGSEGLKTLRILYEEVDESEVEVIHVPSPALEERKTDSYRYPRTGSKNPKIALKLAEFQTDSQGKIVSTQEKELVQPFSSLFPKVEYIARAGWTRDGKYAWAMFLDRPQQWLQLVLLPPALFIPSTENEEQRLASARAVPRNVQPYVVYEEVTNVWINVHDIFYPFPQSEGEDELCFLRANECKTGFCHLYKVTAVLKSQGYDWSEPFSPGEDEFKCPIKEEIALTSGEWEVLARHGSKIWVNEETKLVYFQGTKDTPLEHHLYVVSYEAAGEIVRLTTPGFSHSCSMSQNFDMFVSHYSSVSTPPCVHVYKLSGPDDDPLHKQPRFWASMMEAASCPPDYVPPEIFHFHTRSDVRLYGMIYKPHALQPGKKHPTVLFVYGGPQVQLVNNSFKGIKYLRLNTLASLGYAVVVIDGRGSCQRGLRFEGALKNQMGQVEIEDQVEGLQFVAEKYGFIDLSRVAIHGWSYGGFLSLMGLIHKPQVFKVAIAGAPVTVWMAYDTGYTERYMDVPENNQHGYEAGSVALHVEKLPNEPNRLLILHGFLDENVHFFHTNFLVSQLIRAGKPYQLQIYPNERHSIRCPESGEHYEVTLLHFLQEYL
In short: as §1

FAP = biological target: T4, FAP (Homo sapiens, UniProt Q12884); test: FAP inhibition (Table 1); conditions: N.I. = No Inhibition
T4 sequence (Q12884 1-760): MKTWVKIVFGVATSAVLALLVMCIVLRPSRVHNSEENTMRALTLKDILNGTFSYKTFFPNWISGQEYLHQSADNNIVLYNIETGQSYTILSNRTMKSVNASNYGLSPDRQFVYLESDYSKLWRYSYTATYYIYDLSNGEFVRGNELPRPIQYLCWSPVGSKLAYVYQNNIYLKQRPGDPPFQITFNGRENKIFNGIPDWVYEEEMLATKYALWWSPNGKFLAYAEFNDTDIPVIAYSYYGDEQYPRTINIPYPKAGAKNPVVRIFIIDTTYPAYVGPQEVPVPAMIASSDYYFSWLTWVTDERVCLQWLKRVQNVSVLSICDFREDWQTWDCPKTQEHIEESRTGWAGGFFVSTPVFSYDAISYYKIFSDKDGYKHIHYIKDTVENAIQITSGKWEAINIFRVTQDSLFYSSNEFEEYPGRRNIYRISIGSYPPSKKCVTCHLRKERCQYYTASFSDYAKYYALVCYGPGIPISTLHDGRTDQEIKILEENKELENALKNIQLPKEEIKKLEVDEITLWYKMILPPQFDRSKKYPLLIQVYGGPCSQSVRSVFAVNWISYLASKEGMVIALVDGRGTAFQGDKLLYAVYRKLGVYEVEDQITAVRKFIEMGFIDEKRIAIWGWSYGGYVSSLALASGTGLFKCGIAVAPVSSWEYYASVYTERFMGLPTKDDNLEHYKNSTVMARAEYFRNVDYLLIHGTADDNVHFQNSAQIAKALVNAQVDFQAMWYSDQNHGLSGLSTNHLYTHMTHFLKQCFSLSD

SMILES	IC50 (human DPP IV)	IC50 [1]	DPP 8 IC50 (human DPP 8)	DPP 9 IC50 (Human DPP 9)	FAP IC50 (FAP)	DPP 7 IC50 [1]	IC50 (human DPP 8)	IC50 (Human DPP 9)	IC50 (FAP)
COC(=O)C1CCN(Cc2csc3c(=O)n(Cc4ccccc4C#N)c(N4CCC[C@@H](N)C4)nc23)CC1 [Compound 54, (R)-methyl 1-((2-(3-aminopiperidin-1-yl)-3-(2-cyanobenzyl)-4-oxo-3,4-dihydrothieno[3,2-d]pyrimidin-7-yl)-methyl)piperidine-4-carboxylate]	0.238 µM	39.2 µM	N.I.	N.I.	N.I.				
CCNC(=O)c1cc2nc(N3CCC[C@@H](N)C3)n(Cc3ccccc3C#N)c(=O)c2s1 [Compound 113, (R)-2-(3-aminopiperidin-1-yl)-3-(2-cyanobenzyl)-N-ethyl-4-oxo-3,4-dihydrothieno[3,2-d]pyrimidine-6-carboxamide]	0.0187 µM					N.I.	166 µM	303 µM	173 µM
N#Cc1ccccc1Cn1c(N2CCC[C@@H](N)C2)nc2cc(C(=O)NCc3cccc(C(F)(F)F)c3)sc2c1=O [Compound 120, (R)-2-(3-aminopiperidin-1-yl)-3-(2-cyanobenzyl)-4-oxo-N-(3-(trifluoromethyl)benzyl)-3,4-dihydrothieno[3,2-d]pyrimidine-6-carboxamide]	0.0286 µM					N.I.	53.8 µM	49.7 µM	87.4 µM
N#Cc1ccccc1Cn1c(N2CCC[C@@H](N)C2)nc2c(C(=O)N3CCOCC3)csc2c1=O [Compound 69, (R)-2-((2-(3-aminopiperidin-1-yl)-7-(morpholine-4-carbonyl)-4-oxothieno-[3,2-d]pyrimidin-3(4H)-yl)methyl)-benzonitrile]	0.0321 µM		N.I.	N.I.	N.I.	N.I.			
N#Cc1ccccc1Cn1c(N2CCC[C@@H](N)C2)nc2cc(C(=O)NC3CC3)sc2c1=O [Compound 40, (R)-2-(3-aminopiperidin-1-yl)-3-(2-cyanobenzyl)-N-cyclopropyl-4-oxo-3,4-dihydrothieno[3,2-d]pyrimidine-6-carboxamide]	0.0183 µM		N.I.			N.I.		266 µM	213 µM
COC(=O)[C@H](Cc1ccc(O)cc1)NC(=O)c1cc2nc(N3CCC[C@@H](N)C3)n(Cc3ccccc3C#N)c(=O)c2s1 [Compound 101, (S)-methyl 2-(2-((R)-3-aminopiperidin-1-yl)-3-(2-cyanobenzyl)-4-oxo-3,4-dihydrothieno[3,2-d]pyrimidine-6-carboxamido)-3-(4-hydroxyphenyl)-propanoate]	0.0306 µM					N.I.	13.5 µM	14.8 µM	42 µM
COC(=O)[C@H](Cc1ccccc1)NC(=O)c1cc2nc(N3CCC[C@@H](N)C3)n(Cc3ccccc3C#N)c(=O)c2s1 [Compound 102, (S)-methyl 2-(2-((R)-3-aminopiperidin-1-yl)-3-(2-cyanobenzyl)-4-oxo-3,4-dihydrothieno[3,2-d]pyrimidine-6-carboxamido)-3-phenylpropanoate]	0.0384 µM					N.I.	27.8 µM	32.6 µM	68.5 µM
N#Cc1ccccc1Cn1c(N2CCC[C@@H](N)C2)nc2cc(C(=O)N3CCOCC3)sc2c1=O [Compound 118, (R)-2-((2-(3-aminopiperidin-1-yl)-6-(morpholine-4-carbonyl)-4-oxothieno-[3,2-d]pyrimidin-3(4H)-yl)methyl)-benzonitrile]	0.0185 µM			N.I.		N.I.	83.6 µM		80.2 µM
COCCNC(=O)c1cc2nc(N3CCC[C@@H](N)C3)n(Cc3ccccc3C#N)c(=O)c2s1 [Compound 111, (R)-2-(3-aminopiperidin-1-yl)-3-(2-cyanobenzyl)-N-(2-methoxyethyl)-4-oxo-3,4-dihydrothieno[3,2-d]-pyrimidine-6-carboxamide]	0.0189 µM				N.I.	N.I.	112 µM	131 µM	
N#Cc1ccccc1Cn1c(N2CCC[C@@H](N)C2)nc2c(N)csc2c1=O [Compound 84, (R)-2-((7-amino-2-(3-aminopiperidin-1-yl)-4-oxothieno[3,2-d]pyrimidin-3(4H)-yl)methyl)benzonitriIe]	0.0242 µM			N.I.		N.I.	62 µM		91.3 µM
N#Cc1ccccc1Cn1c(N2CCC[C@@H](N)C2)nc2cc(C(=O)N3CCS(=O)(=O)CC3)sc2c1=O [Compound 114, (R)-2-((2-(3-aminopiperidin-1-yl)-6-(1,1-dioxidothiomorpholine-4-carbonyl)-4-oxothieno[3,2-d]pyrimidin-3(4H)-yl)-methyl)benzonitrile]	0.0222 µM					N.I.	56.2 µM	307 µM	52.2 µM
COC(=O)[C@@H](NC(=O)c1csc2c(=O)n(Cc3ccccc3C#N)c(N3CCC[C@@H](N)C3)nc12)c1ccccc1 [Compound 66, (S)-methyl 2-(2-((R)-3-aminopiperidin-1-yl)-3-(2-cyanobenzyl)-4-oxo-3,4-dihydrothieno[3,2-d]pyrimidine-7-carboxamido)-2-phenylacetate]	0.0358 µM					N.I.	14.4 µM	47.1 µM	18.8 µM

Now those with a lower IC50 (human DPP IV), led by results:

IC50 (human DPP IV)	IC50 [1]	DPP 8 IC50 (human DPP 8)	DPP 9 IC50 (Human DPP 9)	FAP IC50 (FAP)	DPP 7 IC50 [1]	IC50 (human DPP 8)	IC50 (Human DPP 9)	IC50 (FAP)	SMILES
0.0106 µM					N.I.	18.4 µM	92.9 µM	30.6 µM	COCCNC(=O)c1csc2c(=O)n(Cc3ccccc3C#N)c(N3CCC[C@@H](N)C3)nc12 [Compound 74, (R)-2-(3-aminopiperidin-1-yl)-3-(2-cyanobenzyl)-N-(2-methoxyethyl)-4-oxo-3,4-dihydrothieno[3,2-d]pyrimidine-7-carboxamide]
0.0151 µM	357 µM					47 µM	226 µM	40.9 µM	CC(C)CNC(=O)c1csc2c(=O)n(Cc3ccccc3C#N)c(N3CCC[C@@H](N)C3)nc12 [Compound 79, (R)-2-(3-aminopiperidin-1-yl)-3-(2-cyanobenzyl)-N-isobutyl-4-oxo-3,4-dihydrothieno[3,2-d]pyrimidine-7-carboxamide]
0.00815 µM					N.I.	23 µM	91.7 µM	28.3 µM	COCCCNC(=O)c1csc2c(=O)n(Cc3ccccc3C#N)c(N3CCC[C@@H](N)C3)nc12 [Compound 75, (R)-2-(3-aminopiperidin-1-yl)-3-(2-cyanobenzyl)-N-(3-methoxypropyl)-4-oxo-3,4-dihydrothieno[3,2-d]pyrimidine-7-carboxamide]
0.0113 µM		N.I.	N.I.	N.I.	N.I.				CC(=O)OCc1csc2c(=O)n(Cc3ccccc3C#N)c(N3CCC[C@@H](N)C3)nc12 [Compound 56, (R)-(2-(3-aminopiperidin-1-yl)-3-(2-cyanobenzyl)-4-oxo-3,4-dihydrothieno-[3,2-d]pyrimidin-7-yl)methyl acetate]
0.00976 µM	39.2 µM	N.I.	N.I.	N.I.					N#Cc1ccccc1Cn1c(N2CCC[C@@H](N)C2)nc2c(C(=O)O)csc2c1=O [Compound 44, (R)-2-(3-aminopiperidin-1-yl)-3-(2-cyanobenzyl)-4-oxo-3,4-dihydrothieno-[3,2-d]pyrimidine-7-carboxylic acid hydrochloride]
0.0156 µM					N.I.	62.1 µM	91.8 µM	101 µM	N#Cc1ccccc1Cn1c(N2CCC[C@@H](N)C2)nc2cc(C(=O)NCc3ccccc3F)sc2c1=O [Compound 109, (R)-2-(3-aminopiperidin-1-yl)-3-(2-cyanobenzyl)-N-(2-fluorobenzyl)-4-oxo-3,4-dihydrothieno[3,2-d]pyrimidine-6-carboxamide]
